From patent US8546421B1, “Oncogenic-RAS-signal dependent lethal compounds” (The Trustees of Columbia University in the City of New York, priority 2007, dated 2013)
Where “and” joins values, the source holds several entries; their conditions need not be identical. Equal values may be shown once. Where a name gives a salt, the structure may show the parent alone.

Key:
[1] = tested on: BJeH, BJeHLT, BJeLR and DRD cells; test: Cell growth inhibition by stereoisomers of Compound 27; settings: for cell growth inhibition (in words): BJeH, BJeHLT, BJeLR, DRD cells
[2] = tested on: BJ cell system (BJ-TERT, BJ-TERT/LT/ST, BJ-TERT/LT/ST/RAS^V12, DRD cells); test: Alamar blue potency and selectivity in the engineered BJ cell system; settings: for growth inhibitory activity and selectivity in the BJ cell system (in words): alamar blue, structural analogs and hits; for activity of analogs of Compound 27, percent growth inhibition (in words): cell viability assay, SAR of Compound 27
Protocol: Empty “step-daughter plates” were filled with 50 μL DMEM, except for columns 3 and 13, where 100 μL of hit compound solution were cherry-picked from daughter plates. After compound transfer, 2-fold dilution series across columns 3 through 12 and columns 13 through 22 was made by transferring 50 μL of compound solution to the next column successively (10-point dilution series), with extensive mixing. Hit-picking and 2-fold dilution series were carried out using Biomek FX Span-8 module (Beckman Coulter). Assay plates were prepared by seeding 1,000 BJ-TERT, BJ-TERT/LT/ST, and BJ-TERT/LT/ST/RAS^V12 cells per well in 36 μL growth medium. Cells in assay plates were treated with compounds from step-daughter plates by transferring 4 μL. The final concentration of the compound was 5.33 μg/mL to 0.01 μg/mL in this 10-point, 2-fold dilution series. Assay plates were returned to the culture incubator and maintained for 48 hours before adding alamar blue.
Fresh daughter plates were made from the mother plate and cherry-picked hits from the first round, 2-fold dilution series experiment as described above. Assay plates were prepared by seeding 1,000 BJ-TERT, BJ-TERT/LT/ST, BJ-TERT/LT/ST/RAS^V12 or BJ-TERT/p53DD/CDK4/cyclinD1/ST/RAS^V12 (DRD) cells per well in 32 μL growth media. Cells in the assay plates were treated with compounds from the step-daughter plate by transferring 8 μL solution. The final concentration of the compound was 10.66 μg/mL to 0.02 μg/mL in a 10-point, 2-fold dilution series manner. Assay plates were returned to the culture incubator and maintained for 48 hours before adding alamar blue.
Cells were seeded in 384-well assay plates, treated with candidate compounds, and incubated in the culture incubator in 40 μL culture volume per well. […] Plates were incubated further for 16 hours to allow reduction of alamar blue, which results in the generation of red fluorescence. The fluorescence intensity was determined using a Victor 3 plate reader (Perkin Elmer) with a 535 nm excitation filter and a 590 nm emission filter.
In the subsequent two-fold dilution series testing, selectivity was calculated as the ratio of GI50 values in BJ-TERT/LT/ST and BJ-TERT/LT/ST/RAS^V12 cells. […] DRD cells are also derived from BJ primary cells and the effects of mutations in both lines should be similar.

[3] = tested on: cellular iron in BJ-TERT/LT/ST/RAS^V12 cells; test: Cellular iron level by flow cytometry with Phen Green SK; assay type: cell-based, human; settings: 24 hours treatment
Protocol: Cells were seeded in 6-well plates (200,000 cells per well) in BJ medium. The next day, the cell monolayer was washed with phosphate buffered saline (“PBS”) twice and stained with 5 μM of Phen Green SK, diacetate (Molecular Probe, cat.#P14313) in PBS by incubating the plate for 15 minutes in a culture incubator. Cells were released with trypsin/EDTA, harvested in 2 mL PBS, and centrifuged at 1,000 rpm for 5 min. The cell pellet was re-suspended in 1 mL of PBS, the cell suspension was transferred to disposable FACS tubes, and the fluorescence profile of the sample was monitored using a FACSCalibur system (BD Biosciences).

HT1080 = test: Alamar Blue assay, additional cell lines; assay type: cell-based, human
Text: (§1) The results of this additional testing are summarized in Tables 7-10 (no additional cell lines were identified as sensitive for Compound 3). […] The tumor type, cell line, maximum percentage inhibition, the concentration of compound required to inhibit cell growth by 50%, and RAS mutation (if any) are also summarized.

[4] = tested on: BJELR (Foreskin fibroblasts w/ TERT, LT, ST, RAS); test: Alamar Blue assay, additional cell lines; assay type: cell-based, human
Text: as §1

Calu-1 = test: Alamar Blue assay, additional cell lines; assay type: cell-based, human; settings: Calu-1, Non-small cell lung carcinoma, Alamar Blue
Text: as §1

UO-31 = test: NCI60 anti-cancer screening
RXF393 = test: NCI60 anti-cancer screening
CAKI-1 = test: NCI60 anti-cancer screening; settings: Homo sapiens
786-0 = test: NCI60 anti-cancer screening
K-562 = test: NCI60 anti-cancer screening
ACHN = test: NCI60 anti-cancer screening
HL-60(TB) [5] = test: cells; settings: Homo sapiens
HL-60(TB) [6] = settings: Leukemia
MES-CA = test: Alamar Blue assay, additional cell lines; assay type: cell-based; settings: Uterine sarcoma
Text: as §1

TC32 = test: Alamar Blue assay, additional cell lines; assay type: cell-based
Text: as §1

SK-ES-1 = test: Alamar Blue assay, additional cell lines; assay type: cell-based; settings: anaplastic osteosarcoma
Text: as §1

HeLa = test: Alamar Blue assay, additional cell lines; assay type: cell-based; settings: Cervical carcinoma
Text: as §1

SK-LMS-1 = test: Alamar Blue assay, additional cell lines; assay type: cell-based; settings: Leimyosarcoma, vulva
Text: as §1

U-2 OS = test: Alamar Blue assay, additional cell lines; assay type: cell-based; settings: Osteosarcoma
Text: as §1

TC71 = test: Alamar Blue assay, additional cell lines; assay type: cell-based
Text: as §1

U973 = test: Alamar Blue assay, additional cell lines; assay type: cell-based
Text: as §1

SK-UT = test: Alamar Blue assay, additional cell lines; assay type: cell-based; settings: Uterine, mixed mesodermal tumor
Text: as §1

[7] = tested on: Calu-1 cells expressing shRNAs targeting HRAS, NRAS or KRAS; test: Drug sensitivity after shRNA knockdown of RAS; assay type: cell-based, human; settings: alamar blue
Protocol: On day one, 3×10^5 Calu-1 cells or 2×10^5 HT1080 cells were seeded in 10-cm dishes; on day 2, frozen virus stock was thawed at 37° C., hexadimethrine bromide (polybrene) (Sigma, cat.#H9268) was added to the virus solution at a final concentration of 8 μg/mL and growth media from cell culture was replaced with the virus/polybrene mixture. The culture was returned to the tissue culture incubator for 2 hours, with rocking of the dishes every 30 min in order to prevent drying. After 2 h, 10 mL growth medium was added, the culture was incubated for 2 days, and cells stably expressing shRNA were selected by adding puromycin (Sigma, cat.#P9620) at a final concentration of 1.5 μg/mL.
On the day of experiment, assay plates were prepared by seeding 3,000 HT1080, HT1080-pLKO, HT1080-TfR1 KD, Calu-1, Calu-1-pLKO, or Calu-1-509 cells per well in 36 μL of growth media to black, clear bottom 384-well plates. Also, assay plates were prepared by seeding 1,500 shRNA infected HT1080 or Calu-1 cells per well. Cells in assay plates were treated with each lethal compound in a 2-fold dilution series by transferring 4 μL solution from a 10× lethal plate of Erastin, Compound 3, Compound 27, or Compound 36. […] Percent growth inhibition (% GI) was calculated using fluorescence intensity values.

[8] = tested on: PARP-1 cleavage in BJ-TERT/LT/ST/RAS^V12 cells; test: Western blot of PARP-1 cleavage upon compound treatment; assay type: cell-based, human; settings: Western blot with anti-PARP-1 antibody
Protocol: 2×10^6 BJ-TERT/LT/ST/RAS^V12 cells were seeded in 10 cm dishes and treated with 1 μM staurosporine, 10 μg/mL erastin, 20 μg/mL Compound 3, and 1 μg/mL Compound 27 for 16 h. Both dying cells and live cells in each 10 cm dish were harvested and collected in the same 15 mL tubes by centrifuging cell suspension at 1,000 rpm for 5 min. Cell pellets were washed three times with PBS and cells were lysed in 200 μL of denaturing lysis buffer (50 mM HEPES KOH [pH 7.4], 40 mM NaCl, 2 mM EDTA, 1.5 mM Na3VO4, 50 mM NaF, 10 mM sodium pyrophosphate, 10 mM sodium β-glycerophosphate, 0.5% Triton X-100, and protease inhibitor tablet [Roche, cat.#11836170001]). Protein content was quantified using a Bio-Rad protein assay reagent (Bio-Rad, cat.#500-00006). Equal amounts of protein were resolved on SDS-polyacrylamide gels. The electrophoresed proteins were transblotted onto a PVDF membrane, blocked with 5% milk, and incubated with rabbit primary antibodies specific to: PARP (Santa Cruz, cat.#sc-7150), cleaved caspase-3 (Cell Signaling Technology, cat.#9661) overnight at 4° C. The membrane was then incubated in IRDye 800 goat anti-rabbit antibody (Li-cor Bioscience cat.#926-32211) at 1:3,000 dilutions for 45 min at room temperature. After washing off the unbound antibodies, membranes were scanned using the Odyssey™ Imaging System (Li-cor Bioscience).

SMILES: COC(=O)c1ccc([C@@H]2c3[nH]c4ccccc4c3C[C@H](C(=O)OC)N2C(=O)CCl)cc1 [1R,3R Compound 27]
- cell growth inhibition (in words) [1]: no appreciable growth inhibition

SMILES: COC(=O)c1ccc([C@H]2c3[nH]c4ccccc4c3C[C@H](C(=O)OC)N2C(=O)CCl)cc1 [1S,3R Compound 27]
- cell growth inhibition (in words) [1]: strong cell growth inhibition in two cell lines
- EC50 ([1]; Homo sapiens): ~0.005 µg/mL and ~10 nM
- selective lethality (in words) ([1]; mutant HRAS BJ tumor cell lines versus isogenic cell lines lacking oncogenic HRAS): selective lethality towards BJ tumor cell lines containing mutant HRAS

SMILES: COC(=O)c1ccc([C@@H]2c3[nH]c4ccccc4c3C[C@@H](C(=O)OC)N2C(=O)CCl)cc1 [(1R,3S) Compound 27]
- cell growth inhibition (in words) [1]: no appreciable growth inhibition

SMILES: COC(=O)c1ccc([C@H]2c3[nH]c4ccccc4c3C[C@@H](C(=O)OC)N2C(=O)CCl)cc1 [(1S,3S) Compound 27]
- cell growth inhibition (in words) [1]: no appreciable growth inhibition

SMILES: COC(=O)C1=C(C)NC2=C(C(=O)CC(c3ccc(Cl)cc3)C2)C1c1ccccc1F (stereo not shown) [Compound 5]
- growth inhibitory activity and selectivity in the BJ cell system (in words) [2]: varied potency and selectivity

SMILES: COC(=O)C1Cc2c([nH]c3ccccc23)C(C)(C)N1C(=O)CCl (stereo not shown) [Compound 28]
- growth inhibitory activity and selectivity in the BJ cell system (in words) [2]: virtually the same activity and selectivity

SMILES: O=C(NN=Cc1c(O)ccc2ccccc12)c1ccncc1 [Compound 311]
- change of cellular iron level (PGSK fluorescence) [3]: induced a peak shift in the fluorescence profile

SMILES: CC(=O)N(O)CCCCCNC(=O)CCC(=O)N(O)CCCCCNC(=O)CCC(=O)N(O)CCCCCN [DFOM, deferoxamine mesylate]
- change of cellular iron level (PGSK fluorescence) [3]: induced a peak shift in the fluorescence profile

SMILES: CCOc1ccccc1-n1c(C(C)N2CCN(C(=O)COc3ccc(Cl)cc3)CC2)nc2ccccc2c1=O (stereo not shown) [Erastin, reference compound]
- Maximum Inhibition % (HT1080; Fibrosarcoma): 98%
- GI50 (HT1080; Homo sapiens, HT-1080, Fibrosarcoma): 2 µM
- Maximum Inhibition % [4]: 100%
- GI50 ([4]; Homo sapiens): 6 µM
- Maximum Inhibition % (Calu-1): 100%
- GI50 (Calu-1; Homo sapiens): 6 µM
- GI50 (UO-31; Homo sapiens, UO-31): 0.373 µM
- CC50 (UO-31; Homo sapiens, UO-31, read-out: LC 50%): > 10 µM
- GI 100% (UO-31; UO-31, Renal Cancer): 1.63 µM
- GI50 (RXF393; Homo sapiens, RXF 393): 2.16 µM
- CC50 (RXF393; Homo sapiens, RXF 393, read-out: LC 50%): > 10 µM
- GI 100% (RXF393; RXF393, Renal Cancer): 7.2 µM
- GI50 (CAKI-1; CAKI-1): 2.15 µM
- CC50 (CAKI-1; CAKI-1, read-out: LC 50%): > 10 µM
- GI 100% (786-0; 786-0, Renal Cancer): 4.12 µM
- GI50 (786-0; Homo sapiens, 786-0): 2.03 µM
- CC50 (786-0; Homo sapiens, 786-0, read-out: LC 50%): 8.36 µM
- GI50 (K-562; Homo sapiens, K562): 3.39 µM
- CC50 (K-562; Homo sapiens, K562, read-out: LC 50%): > 10 µM
- GI 100% (K-562; K-562, Leukemia): >10 µM
- GI50 (ACHN; Homo sapiens): 0.979 µM
- CC50 (ACHN; Homo sapiens, read-out: LC 50%): 6.3 µM
- GI 100% (ACHN; Renal Cancer): 2.5 µM
- GI50 (HL-60(TB) [5]; HL-60): 2.26 µM
- CC50 (HL-60(TB) [5]; HL-60, read-out: LC 50%): > 10 µM
- GI 100% (HL-60(TB) [6]): >10 µM
- GI50 (MES-CA): 3 µM
- Maximum Inhibition % (MES-CA): 100%
- GI50 (TC32; Homo sapiens, TC-32, Peripheral neuroepithelioma): 8 µM
- Maximum Inhibition % (TC32; Peripheral neuroepithelioma): 88%
- Maximum Inhibition % (SK-ES-1; Ewing sarcoma): 98%
- GI50 (SK-ES-1; Homo sapiens, SK-ES1, Ewing sarcoma): 7 µM
- Maximum Inhibition % (HeLa): 94%
- GI50 (HeLa; Homo sapiens): 0.6 µM
- GI50 (SK-LMS-1; Homo sapiens): 6 µM
- Maximum Inhibition % (SK-LMS-1): 100%
- GI50 (U-2 OS; Homo sapiens, U2OS): 6 µM
- Maximum Inhibition % (U-2 OS): 96%
- Maximum Inhibition % (TC71; Ewing sarcoma): 92%
- GI50 (TC71; TC-71, Ewing sarcoma): 10 µM
- Maximum Inhibition % (U973; Acute myelogenous leukemia): 73%
- GI50 (U973; U-973, Acute myelogenous leukemia): 10 µM
- GI50 (SK-UT): 4 µM
- Maximum Inhibition % (SK-UT): 73%

SMILES: C=CC(=O)N1C(C(=O)OC)Cc2c([nH]c3ccccc23)C1c1ccc(C(=O)OC)cc1 (stereo not shown) [acryl analog]
- activity of analogs of Compound 27, percent growth inhibition (in words) [2]: insufficiently active

SMILES: COC(=O)C1Cc2c([nH]c3ccccc23)C(c2ccc(NC(=O)CCCCCNC(=O)CCCCC3SCC4NC(=O)NC43)cc2)N1C(=O)CCl (stereo not shown) [biotinylated analog of Compound 27]
- activity of analogs of Compound 27, percent growth inhibition (in words) [2]: not sufficiently active

SMILES: CN[C@@H]1C[C@H]2O[C@@](C)([C@@H]1OC)n1c3ccccc3c3c4c(c5c6ccccc6n2c5c31)C(=O)NC4 [staurosporine, reference compound]
- sensitivity of Calu-1 cells after RAS shRNA compared with parental cells [7]: loss of sensitivity to staurosporine was not observed
- PARP-1 cleavage / type of cell death [8]: showed PARP-1 cleavage
